According to patent publication US12600724B2, “Indole alkaloid and preparation method and use thereof” (NANJING UNIVERSITY OF CHINESE MEDICINE, priority 2022, dated 2026):

What was measured:
[1] = test system: STZ-induced type-1 diabetes model mice; test: Motor nerve conduction velocity, type-1 diabetic peripheral neuropathy mice; type: in vivo, C57BL/6J mice; settings: for Motor nerve conduction velocity: type-1 mice, S26 46.8 mg/kg/day intragastric, Mean ± SD, n = 3
Method: Type-1 diabetes mice: male 8-week-old C57BL/6J mice were purchased from Beijing Vital River Laboratory Animal Technology Co., Ltd. One week after adaptive feeding, STZ (150 mg/kg) was injected intraperitoneally, and one week later, tail vein blood collection was carried out for blood sugar detection, and the mice with random blood sugar greater than 16 mmol/L were selected. Six weeks after STZ injection, the mice were divided into a control group (non-diabetic mice), a model group (DPN mice) and a S26 administration group (46.8 mg/kg/day) respectively according to body weight and blood sugar, and administrated intragastrically for four weeks continuously. Before administration, 2 weeks and 4 weeks after administration, motor nerve conduction velocities (MNCV) of left and right sides of each group of mice were detected, and a mean value of the velocities of two sides was taken as a nerve conduction velocity of each mouse. Specific experimental method: (1) electrode placement: a stimulating electrode was placed on a nerve trunk, a recording electrode was placed on a muscle belly, and a reference electrode was placed on a muscle tendon; and a ground electrode was placed between the stimulating electrode and the recording electrode. (2) Calculation of motor nerve conduction velocity: distal and proximal ends of the nerve trunk were stimulated in a super-strong manner, a compound muscle action potential could be recorded twice on a muscle innervated by the nerve, different latent periods of the compound muscle action potentials were measured, and a distance between the distal and proximal ends was divided by a difference between the two latent periods, so as to obtain the nerve conduction velocity. Computational formula: nerve conduction velocity (m/s)=distance between two ends (cm)×10/difference between two latent periods (ms).

[2] = test system: type-2 diabetes model db/db mice; test: 50% mechanical pain threshold (Von frey), type-2 diabetes db/db mice; type: in vivo, BKS db/db mice; settings: S26 46.8 mg/kg/day intragastric, Mean ± SD, n = 6
Method: Type-2 diabetes mice: male 18-week-old BKS db/db mice were purchased from Jiangsu Gempharmatech Biotechnology Co., Ltd. One week after adaptive feeding, the mice were divided into a control group (db/m mice), a model group (db/db mice) and a S26 administration group (46.8 mg/kg/day) respectively according to body weight and blood sugar, and administrated intragastrically for four weeks continuously. This experiment was based on a principle that claws of rodents would have a withdrawal reflex under mechanical stimulation. A Von frey tactile measuring set was purchased from Ugo Basile Company, and Von frey filaments could provide 0.008 g to 300 g of stimulating force, wherein a thickness of the filaments determined a magnitude of the stimulating force. Specific experimental method: filaments with proper thicknesses were selected to vertically stimulate a skin, and the stimulating force was adjusted by replacing the filaments, until the filaments were bent. One mouse was tested for 6 times to determine a threshold, and a 50% mechanical pain threshold of the mouse was calculated according to 50% threshold=(10^(Xf+k δ))/10000, which was detected weekly before and after administration respectively.

CC[C@@]12C=C(C(=O)NCC(=O)OCCOCCOCCOCCO)n3c4c(c5ccccc53)CCN(CCC1)[C@H]42 [Compound S26]
Motor nerve conduction velocity and anesthesia symptom (in words) ([1]; type-1 diabetes peripheral neuropathy mouse, Tables 2 to 4): obviously improve
Motor nerve conduction velocity ([1]; week 0 of administration): 20.37 ± 3.21^ m/s
Motor nerve conduction velocity ([1]; week 2 of administration): 27.48 ± 2.97 m/s
Motor nerve conduction velocity ([1]; week 4 of administration): 31.11 ± 3.85 m/s
50% mechanical pain threshold ([2]; week 0 of administration): 1.33 ± 0.56^ g
50% mechanical pain threshold ([2]; week 1 of administration): 1.04 ± 0.55^ g
50% mechanical pain threshold ([2]; week 2 of administration): 0.91 ± 0.37 g
50% mechanical pain threshold ([2]; week 3 of administration): 0.72 ± 0.39 g
50% mechanical pain threshold ([2]; week 4 of administration): 0.71 ± 0.42 g
